Measured values: publication PMC6386544 (Infection and Immunity, 2019)
Like-named read-outs stand apart in the source and are kept apart here.

What was measured:
ToxB-B2 [1] = biological target: T1, ToxB-B2 (Clostridioides difficile, UniProt P18177); settings: glycan 160 nM to 100 μM
T1 construct: gene tcdB

ToxA-B1 [2] = biological target: T2, ToxA-B1 (Clostridioides difficile, UniProt P16154); settings: glycan 160 nM to 100 μM
T2 construct: gene tcdA

ToxB-GT [3] = biological target: T3, ToxB-GT (Clostridioides difficile, UniProt P18177); settings: glycan 160 nM to 100 μM
T3 construct: gene tcdB

ToxA-B3 [4] = biological target: T4, ToxA-B3 (Clostridioides difficile, UniProt P16154); settings: glycan 160 nM to 100 μM
T4 construct: gene tcdA

ToxB-GT [5] = biological target: T3, ToxB-GT; assay: biochemical
ToxA-B1 [6] = biological target: T2, ToxA-B1; assay: biochemical
ToxA-B3 [7] = biological target: T4, ToxA-B3; assay: biochemical
ToxB-B2 [8] = biological target: T1, ToxB-B2; assay: biochemical
[9] = read-out: Protein binding (KD)^a / ToxB-B2
[10] = read-out: Protein binding (KD)^a / ToxA-B1
[11] = read-out: Protein binding (KD)^a / ToxA-B3

Molecule | Kd (ToxB-B2 [1]; [9]) | Kd (ToxA-B1 [2]; [10]) | Kd (ToxB-GT [3]) | Kd (ToxA-B3 [4]; [11]) | also measured
C[C@@H]1O[C@@H](O[C@H]2[C@H](O[C@H]3[C@H](O)[C@@H](O)C(O)O[C@@H]3CO)O[C@H](CO)[C@H](O)[C@@H]2O[C@H]2O[C@H](CO)[C@H](O)[C@H](O)[C@H]2O)[C@@H](O)[C@H](O)[C@@H]1O (some centres unmarked) [Blood group B] | 42.9 ± 59.1 µM | 11.4 ± 1.08 µM | > 100 µM | 14.4 ± 3.2 µM | 
CC(=O)N[C@H]1[C@H](O[C@H]2[C@@H](O)[C@@H](CO)OC(O)[C@@H]2O)O[C@H](CO)[C@@H](O[C@@H]2O[C@@H](C)[C@@H](O)[C@@H](O)[C@@H]2O)[C@@H]1O[C@@H]1O[C@H](CO)[C@H](O)[C@H](O)[C@H]1O (some centres unmarked) [Lewis A] | 0.579 ± 0.037 µM | 3.38 ± 0.95 µM | > 100 µM | 1.65 ± 0.62 µM | 
CC(=O)N[C@H]1[C@H](O[C@H]2[C@@H](O)[C@@H](CO)OC(O)[C@@H]2O)O[C@H](CO)[C@@H](O[C@@H]2O[C@@H](C)[C@@H](O)[C@@H](O)[C@@H]2O)[C@@H]1O[C@@H]1O[C@H](CO)[C@H](O)[C@H](O)[C@H]1O[C@@H]1O[C@@H](C)[C@@H](O)[C@@H](O)[C@@H]1O (some centres unmarked) [Lewis B] | 0.395 ± 0.029 µM |  | > 100 µM |  | 
CC(=O)N[C@H]1[C@H](O[C@H]2[C@@H](O)[C@@H](CO)OC(O)[C@@H]2O)O[C@H](CO)[C@@H](O[C@@H]2O[C@H](CO)[C@H](O)[C@H](O)[C@H]2O)[C@@H]1O[C@@H]1O[C@@H](C)[C@@H](O)[C@@H](O)[C@@H]1O (some centres unmarked) [Lewis X] | 0.501 ± 0.308 µM | 18.9 ± 5.58 µM | > 100 µM | 16.5 ± 2.8 µM | 
CO[C@H]1O[C@H](CO)[C@@H](O)[C@H](O)[C@@H]1O [α-Methyl-mannose] |  |  |  |  | Kd (ToxB-GT [5]): > 100 µM; Kd (ToxA-B1 [6]): > 100 µM; Kd (ToxA-B3 [7]): > 100 µM; Kd (ToxB-B2 [8]): 0.315 ± 0.103 µM
Blood group A | 0.0291 ± 0.0075 µM | 1.53 ± 0.6 µM | > 100 µM | 0.0614 ± 0.0296 µM | 
Blood group H | 0.428 ± 0.008 µM | 1.22 ± 0.49 µM | > 100 µM |  | Kd (ToxA-B3 [4]): > 100 µM
Lewis Y | 8 ± 0.74 µM | 12.7 ± 2.47 µM | > 100 µM | 55.5 ± 28.8 µM | 
Man5 |  |  | > 100 µM |  | Kd (ToxB-B2 [1]): > 100 µM; Kd (ToxA-B1 [2]): > 100 µM; Kd (ToxA-B3 [4]): > 100 µM
Sialyl-Lewis A | 2.39 ± 0.68 µM | 71.8 ± 27.1 µM | > 100 µM | 72.1 ± 31.8 µM | 
